The nature of the series: Human HepG2 cell viability assay in 384 well format. It counts as toxicity, cell-based. To be noted: HepG2 cells, read-out: Inhibition. Details: dose 125 nL, time 70.5 hour; concentration not given beside the values.

Structures are written as SMILES.

Regarding `COc1ccccc1C1Cn2c(C)cnc2CN1Cc1ccc(C)nc1` (centres undefined), the cytotoxicity at 70.5 h turned out to be 22.5%.

In the case of `CC(NC1(CNS(C)(=O)=O)CCCC1)c1ccccc1` (centres undefined), the cytotoxicity at 70.5 h was -16.9%.

With `Cc1ccc(CNCCC(O)(c2nccn2C)C(F)(F)F)o1` (centres undefined), the cytotoxicity at 70.5 h was -6.24%.

For `COCC1CCN(CCOc2ccc(C#N)cc2OC)CC1`, the cytotoxicity at 70.5 h was determined as 20.7%.

Regarding `CCC(NC(=O)c1ccc(COC)o1)c1nc(C(F)(F)F)cs1` (centres undefined), the cytotoxicity at 70.5 h was 4.55%.

`CNC(=O)CNC(=O)Nc1ccc(F)c(Br)c1`: the cytotoxicity at 70.5 h is -2.46%.

Regarding `O=C(NCCO)Nc1ccc(Br)c(F)c1`, the cytotoxicity at 70.5 h is -0.649%.

As to `CC(C)N(C(=O)c1ccnc(OCC(F)(F)F)c1)c1cccnc1`, the cytotoxicity at 70.5 h is -12.7%.

Regarding `Clc1ccc(N2CCN(CCCN3CCCCC3)CC2)nc1`, the cytotoxicity at 70.5 h came out at 7.35%.

Take `N#Cc1ccc(CS(=O)(=O)NC(=O)c2ccc3c(c2)COC3)cc1`: the cytotoxicity at 70.5 h is 14.9%.

`CC(C)CC1(C(=O)NCc2nncn2C2CC2)CCC1`: the cytotoxicity at 70.5 h came out at 1.12%.

With `CC(C)CC1(C(=O)NCCc2nncn2C2CC2)CCC1`, the cytotoxicity at 70.5 h is -3.78%.

`Cc1n[nH]c(-c2ccc(NC(=O)C(C)(C)N3CCN(C)CC3)cc2)n1`: the cytotoxicity at 70.5 h was -7.96%.

Take `CC(NCc1cccn1C)c1noc(-c2ccc(Cl)cc2)n1` (centres undefined): the cytotoxicity at 70.5 h is -9.95%.

In the case of `CCn1cc(CNC(C)c2noc(-c3ccc(Cl)cc3)n2)cn1` (centres undefined), the cytotoxicity at 70.5 h was -3.37%.

On to `O=C(NC1CC1)N(CCc1ccccc1)C1CCOC1` (centres undefined), for which the cytotoxicity at 70.5 h stood at 12.1%.

On to `Cc1nnc(NCc2ccc(F)cc2)o1`, for which the cytotoxicity at 70.5 h is -2.93%.

For `CCc1ccc(C(=O)N(c2cccnc2)C(C)C)cc1S(C)(=O)=O`, the cytotoxicity at 70.5 h was -8%.

For `CC(C)(C)c1nnc(NCc2ccc(F)cc2)o1`, the cytotoxicity at 70.5 h is -2.71%.

For the compound `COc1ccc(CNC(c2cccc(F)c2)c2cnn(C)c2)cc1` (centres undefined), the cytotoxicity at 70.5 h is -3.12%.

Take `CN(C)CCNc1ncccc1CNC(=O)Nc1cc(F)cc(F)c1`: the cytotoxicity at 70.5 h is -12%.

On to `CNC(=O)c1cccc(CCNC2CCSc3ccccc32)c1` (centres undefined), for which the cytotoxicity at 70.5 h was -3.79%.

As to `CNC(=O)c1cccc(CNC2CCSc3c(Cl)cccc32)c1` (centres undefined), the cytotoxicity at 70.5 h was 35.4%.

Regarding `COc1ccccc1CN1CCCC(n2cccn2)C1` (centres undefined), the cytotoxicity at 70.5 h is -1.34%.

With `O=C(CN1CCCCCC1=O)NC1CCc2nccn2C1` (centres undefined), the cytotoxicity at 70.5 h is -8.44%.

`CC(C(=O)N(C)Cc1ccco1)n1cncn1` (centres undefined): the cytotoxicity at 70.5 h turned out to be 1.02%.

In the case of `CC(C)(C)OC(=O)N1CCCCC(NC(=O)CCc2cccnc2)C1` (centres undefined), the cytotoxicity at 70.5 h was -3.57%.

Take `Cc1nnc(CSc2ccccn2)o1`: the cytotoxicity at 70.5 h is -13.6%.

Regarding `N#Cc1cn(C2CC2)c(=O)n(Cc2noc(-c3ccsc3)n2)c1=O`, the cytotoxicity at 70.5 h was -14%.

For the compound `O=C(CN1CCS(=O)(=O)CC1)Nc1ccc(N2CCCC2)nc1`, the cytotoxicity at 70.5 h is -5.27%.

Take `CS(=O)(=O)NC1CCN(C(=O)NCC2CCCO2)CC1` (centres undefined): the cytotoxicity at 70.5 h is -10.3%.

`CC(C)(CNc1ccccc1S(=O)(=O)C(F)F)N1CCOCC1`: the cytotoxicity at 70.5 h was -0.0351%.

Consider `CC(OCC1CC1)C(=O)N1CCCN(c2nc3ccccc3[nH]2)CC1` (centres undefined), for which the cytotoxicity at 70.5 h is -3.86%.

Turning to `Cc1ccc(F)cc1S(=O)(=O)NCc1[nH]ncc1Br`, the cytotoxicity at 70.5 h is -0.985%.

With `O=C(NC1=NCCS1)C1CSCN1C(=O)C1CCCC1` (centres undefined), the cytotoxicity at 70.5 h was -12.4%.

As to `N#Cc1cn(C2CC2)c(=O)n(Cc2ncc(-c3cccs3)o2)c1=O`, the cytotoxicity at 70.5 h was -13%.

For `CCOc1ccc(N(C)Cc2nnc(C)o2)cc1`, the cytotoxicity at 70.5 h was determined as 19.3%.

With `CN(C)C(=O)CCNC(=O)Nc1sc2ccccc2c1Cl`, the cytotoxicity at 70.5 h was -7.68%.

Consider `CS(=O)(=O)CCNC(=O)Nc1sc2ccccc2c1Cl`, for which the cytotoxicity at 70.5 h was -11.7%.

Regarding `O=C(CN1C(=O)CCCc2sccc21)NC1CCc2nccn2C1` (centres undefined), the cytotoxicity at 70.5 h was -1.68%.

With `CS(=O)(=O)CCCNC(=O)Nc1sc2ccccc2c1Cl`, the cytotoxicity at 70.5 h was -4.03%.

As to `Brc1cnc(NCCCOCC2CCOCC2)nc1`, the cytotoxicity at 70.5 h is -5.42%.

Take `c1cnc(NCCCOC2CCOCC2)nc1`: the cytotoxicity at 70.5 h is 4.17%.

On to `NC(=O)COCCNC(=O)Nc1sc2ccccc2c1Cl`, for which the cytotoxicity at 70.5 h was -9.32%.

For `CS(=O)(=O)NCc1ccc(C(=O)NCc2ccc3c(c2)CCC3)o1`, the cytotoxicity at 70.5 h is -7.15%.

On to `CCCC(O)CNc1cncc(Br)c1` (centres undefined), for which the cytotoxicity at 70.5 h was -5.08%.

In the case of `Clc1cc(Cl)cc(CN2CCC(NCc3ncc[nH]3)CC2)c1`, the cytotoxicity at 70.5 h is -4.36%.

With `COCCN1CC(C(=O)NCc2ccc(C)s2)CC1=O` (centres undefined), the cytotoxicity at 70.5 h was -1.18%.

As for `Cc1noc(CCCC(=O)N(CC2CCOC2)C2CC2)n1` (centres undefined), the cytotoxicity at 70.5 h was -11%.

Regarding `CCN(CC1CCOC1)C(=O)CCc1nc(C(C)(C)C)no1` (centres undefined), the cytotoxicity at 70.5 h was -10.1%.

For the compound `COC(=O)c1ncccc1N1CCN(C(=O)CN2CCOCC2)CC1`, the cytotoxicity at 70.5 h was 29.5%.

`CN(CCSc1nncn1CC(F)(F)F)c1ccccc1`: the cytotoxicity at 70.5 h amounted to 1.22%.

For `CN1CCN(C2CCN(Cc3cn4ccccc4n3)CC2)C1=O`, the cytotoxicity at 70.5 h worked out at 19.5%.

Regarding `Cc1cccn2cc(CN3CCC(N4CCN(C)C4=O)CC3)nc12`, the cytotoxicity at 70.5 h is -6.74%.

Take `COC(=O)c1ncccc1N1CCC(C(O)c2ccccc2)CC1` (centres undefined): the cytotoxicity at 70.5 h was -6.81%.

As for `O=C(NCc1nnc2n1CCC2)c1cccc(Br)c1`, the cytotoxicity at 70.5 h was -9.88%.

In the case of `Cc1cc(C(=O)NC(C)Cc2cccc(Cl)c2)n(C)n1` (centres undefined), the cytotoxicity at 70.5 h is -2.61%.

On to `CC(NC(=O)Nc1ccc(-c2csnn2)cc1)C(=O)NC(C)(C)C` (centres undefined), for which the cytotoxicity at 70.5 h is -9.46%.

Regarding `N#Cc1cc(S(N)(=O)=O)ccc1N1CCN(c2ccccc2)CC1`, the cytotoxicity at 70.5 h is 1.86%.

`Oc1cccc(CNCc2ccc(-n3cncn3)nc2)c1`: the cytotoxicity at 70.5 h is 0.561%.

Turning to `CN1CCN(c2ccc(F)cc2NC(=O)NCCn2ccnc2)CC1`, the cytotoxicity at 70.5 h is -0.0867%.

Consider `N#Cc1ccc(CNCCc2cc(F)cc3c2OCOC3)cc1`, for which the cytotoxicity at 70.5 h worked out at 7.73%.

As to `CS(=O)(=O)NC(=O)c1ccn(-c2cccc(Br)c2)n1`, the cytotoxicity at 70.5 h is -3.84%.

As for `CC(C)(C)NC(=O)CNc1ccc(Br)cn1`, the cytotoxicity at 70.5 h worked out at 0.762%.

In the case of `CCN1CCN(c2ccccc2NC(=O)NCc2ccon2)CC1`, the cytotoxicity at 70.5 h was -0.39%.

With `CCCn1ccnc1-c1cccc(NC(=O)[C@H]2CCC(=O)N2)c1`, the cytotoxicity at 70.5 h amounted to 1.18%.

For the compound `Fc1cc(CCNc2ccc3nccn3n2)c2c(c1)COCO2`, the cytotoxicity at 70.5 h was 5.74%.

With `Cc1nc(CNC(=O)Nc2cc(F)ccc2N2CCN(C)CC2)no1`, the cytotoxicity at 70.5 h was -2.28%.

As to `CC1CC(NS(=O)(=O)c2ccc(C(F)(F)F)nc2)C1` (centres undefined), the cytotoxicity at 70.5 h stood at 26.5%.

For the compound `CCCn1ccnc1-c1cccc(NC(=O)C2CCCOC2)c1` (centres undefined), the cytotoxicity at 70.5 h was -5.58%.

Turning to `CN(C)CCN(Cc1cccc(F)c1)C(=O)c1ccn(C)c(=O)c1`, the cytotoxicity at 70.5 h was -2.08%.

For `CC(C)(C)CN(CCC#N)C(=O)c1cccc(CC#N)c1`, the cytotoxicity at 70.5 h was -3.08%.

`OCc1cccc(OCc2ccon2)c1`: the cytotoxicity at 70.5 h was -3.01%.

`CN(CCSc1nncn1C(C)(C)C)c1ccccc1`: the cytotoxicity at 70.5 h worked out at 31%.

On to `N#CCCN(Cc1ccccn1)C(=O)c1cccc(CN2CCCC2)c1`, for which the cytotoxicity at 70.5 h was -1.86%.

On to `CC(C#N)(NC(=O)c1ccc(C#N)cc1)C1CC1` (centres undefined), for which the cytotoxicity at 70.5 h is -0.776%.

With `CC(NC(=O)CNc1cc2c(cc1Cl)NC(=O)CO2)c1ccco1` (centres undefined), the cytotoxicity at 70.5 h came to 14.6%.

`CCOc1cc(CNC(=O)CNC(=O)CC2CCCCC2)ccn1`: the cytotoxicity at 70.5 h is -6.29%.

Consider `COc1ccc2cc(C(=O)NCCc3nc(C)no3)[nH]c2c1`, for which the cytotoxicity at 70.5 h came to 5.04%.

As for `CCc1ccc(NC(C(N)=O)c2ccc(F)cc2)cc1` (centres undefined), the cytotoxicity at 70.5 h was -5.1%.

For the compound `COc1ccc(-c2nc(CCNC(=O)NCC3CCOC3)co2)cc1` (centres undefined), the cytotoxicity at 70.5 h is -11.8%.

For the compound `CC(=O)NCCCNC(=O)N(C)C(C)Cc1ccc(Cl)cc1` (centres undefined), the cytotoxicity at 70.5 h is -8.06%.

As to `CC(O)(CNC(=O)NCCc1ccc2c(c1)CCO2)c1ccsc1` (centres undefined), the cytotoxicity at 70.5 h was 1.66%.

On to `NC(=O)C1CCCN1C(=O)c1cc(C2CC2)nc2ccc(F)cc12` (centres undefined), for which the cytotoxicity at 70.5 h stood at 18.9%.

As for `COc1ccc(Cl)cc1CCNC(=O)NCc1noc(C)n1`, the cytotoxicity at 70.5 h is -3.63%.

Turning to `COc1ccccc1OCC(=O)NS(=O)(=O)c1cccnc1`, the cytotoxicity at 70.5 h is -8.19%.

Take `Cc1noc(CCCC(=O)NCCc2cc3ccccc3[nH]2)n1`: the cytotoxicity at 70.5 h was -6.92%.

Regarding `COc1ccc(Cl)cc1CCNC(=O)NCc1cnn(C)c1C`, the cytotoxicity at 70.5 h is -4.39%.

In the case of `N#CC(NC(=O)CC(F)(F)F)c1ccsc1` (centres undefined), the cytotoxicity at 70.5 h is -7.23%.

In the case of `CC(NC(=O)CCn1cccn1)c1ccc(-n2ccnn2)cc1` (centres undefined), the cytotoxicity at 70.5 h is 15.4%.

Regarding `CCN(CC)C1CCN(C(=O)NCc2cccc(NC(C)=O)c2)C1` (centres undefined), the cytotoxicity at 70.5 h is -6.18%.

Turning to `COc1cc(C)ccc1OCCC(=O)N1CCC(N2CC=CC2)C1` (centres undefined), the cytotoxicity at 70.5 h is -2.75%.

As for `CC(C)Oc1ccc(CN)c(C(F)(F)F)c1`, the cytotoxicity at 70.5 h is -7.67%.

As for `CCCS(=O)(=O)N1CCN(CCCO)CC1`, the cytotoxicity at 70.5 h amounted to 0.836%.

Turning to `Cc1cnn(C2CN(CCOc3ccc(C#N)cc3)C2)c1`, the cytotoxicity at 70.5 h is -5.99%.

In the case of `Cc1cn2nc(N(C)C3CCCN(c4cccnn4)C3)sc2n1` (centres undefined), the cytotoxicity at 70.5 h was -11.5%.

`CC(NC(=O)N1CCCC1)c1ccc(S(N)(=O)=O)cc1` (centres undefined): the cytotoxicity at 70.5 h is -13%.

Turning to `CN(C)c1ccc(C(=O)Nc2ccn(CC(N)=O)n2)cn1`, the cytotoxicity at 70.5 h was -8.63%.

Consider `CN(C)c1ccc(C(=O)Nc2ccn(CCc3ccncc3)n2)cc1`, for which the cytotoxicity at 70.5 h came to 15%.

For the compound `Cc1nc2n(n1)CC(NCc1ccc(Cl)c3cccnc13)CC2` (centres undefined), the cytotoxicity at 70.5 h was -8.23%.

Consider `Cc1cc(C[S+]([O-])Cc2ccccc2F)no1` (centres undefined), for which the cytotoxicity at 70.5 h worked out at 16.6%.

Regarding `Cc1ccc(N2CCCC(N(C)c3nn4cc(C)nc4s3)C2)nn1` (centres undefined), the cytotoxicity at 70.5 h is -3.89%.

As for `CN(C)Cc1cc(C2CCCCN2S(=O)(=O)c2cccc(Cl)c2)nn1C` (centres undefined), the cytotoxicity at 70.5 h is -3.27%.

Regarding `c1cc(CNCc2ccc(-n3cncn3)nc2)cc(OC2CCCC2)c1`, the cytotoxicity at 70.5 h was -6.11%.

Source of the values: ChEMBL document CHEMBL3507680, “University of Dundee, Gates Library screen for HepG2 cell viability”.
